Data reported in ChEMBL document CHEMBL5370531, “Design, synthesis and pharmacological evaluation of 2,3-dihydrobenzofuran IRAK4 inhibitors for the treatment of diffuse large B-cell lymphoma” (Eur J Med Chem, 2023).
Active and inactive are the calls of the source. No cut-off for these calls is given here.

Assays:
[1] = tested on: OCI-Ly10; experiment: Synergistic antiproliferative activity against human OCILY10 cells harboring MYD88 L265P assessed as inhibition of cell growth at 200 nM incubated for 72 hrs in presence of BTK inhibitor, ibrutinib at 12.5 nM by CCK-8 assay (reference value: 26.07 %); assay type: functional
[2] = tested on: OCI-Ly10; experiment: Synergistic antiproliferative activity against human OCILY10 cells harboring MYD88 L265P assessed as inhibition of cell growth at 800 nM incubated for 72 hrs in presence of BTK inhibitor, ibrutinib at 25 nM by CCK-8 assay (reference value: 54.76 %); assay type: functional
[3] = target: T1, Interleukin-1 receptor-associated kinase 4 (Homo sapiens, UniProt Q9NWZ3); experiment: Inhibition of IRAK4 (unknown origin) by Z-LYTE enzymatic kinase assay
T1 sequence (Q9NWZ3 whole entry): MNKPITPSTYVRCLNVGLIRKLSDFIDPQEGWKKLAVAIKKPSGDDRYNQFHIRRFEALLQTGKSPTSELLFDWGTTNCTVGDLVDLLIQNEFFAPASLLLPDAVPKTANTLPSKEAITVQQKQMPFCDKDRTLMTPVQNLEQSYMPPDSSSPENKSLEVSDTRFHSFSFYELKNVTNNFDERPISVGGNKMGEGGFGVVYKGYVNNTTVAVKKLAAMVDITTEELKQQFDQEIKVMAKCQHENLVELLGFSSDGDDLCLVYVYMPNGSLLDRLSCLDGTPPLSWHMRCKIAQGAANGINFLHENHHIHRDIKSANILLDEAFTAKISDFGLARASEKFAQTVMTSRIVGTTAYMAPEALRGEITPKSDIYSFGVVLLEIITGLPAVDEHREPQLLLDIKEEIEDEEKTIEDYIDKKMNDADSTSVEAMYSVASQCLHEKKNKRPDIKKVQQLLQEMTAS

[4] = tested on: OCI-Ly10; experiment: Induction of apoptosis in human OCILY10 cells assessed as early apoptotic cells at 0.1 uM incubated for 48 hrs by Annexin V-FITC/PI staining based flow cytometry (reference value: 5.4 %); assay type: functional
[5] = target: Insulin receptor (Homo sapiens) (UniProt P06213); experiment: Inhibition of IR (unknown origin) at 100 nM incubated for 1 hr in presence of ATP by ELISA analysis
[6] = tested on: OCI-Ly10; experiment: Induction of apoptosis in human OCILY10 cells assessed as late apoptotic cells at 0.2 uM incubated for 48 hrs by Annexin V-FITC/PI staining based flow cytometry (reference value: 3.54 %); assay type: functional
[7] = tested on: OCI-Ly10; experiment: Induction of apoptosis in human OCILY10 cells harboring MYD88 L265P assessed as upregulation of PARP cleavage at 0.2 uM in presence of BTK inhibitor, ibrutinib by immunoblotting analysis; assay type: functional, cell-based
[8] = tested on: OCI-Ly10; experiment: Synergistic antiproliferative activity against human OCILY10 cells harboring MYD88 L265P assessed as inhibition of cell growth at 400 nM incubated for 72 hrs in presence of BTK inhibitor, ibrutinib at 12.5 nM by CCK-8 assay (reference value: 34.46 %); assay type: functional
[9] = target: Proto-oncogene tyrosine-protein kinase receptor Ret (Homo sapiens) (UniProt P07949); experiment: Inhibition of RET (unknown origin) at 100 nM incubated for 1 hr in presence of ATP by ELISA analysis relative to control
[10] = tested on: OCI-Ly10; experiment: Induction of apoptosis in human OCILY10 cells assessed as early apoptotic cells at 1 uM incubated for 24 hrs by Annexin V-FITC/PI staining based flow cytometry (reference value: 10 %); assay type: functional
[11] = tested on: OCI-Ly10; experiment: Induction of apoptosis in human OCILY10 cells harboring MYD88 L265P assessed as late apoptotic cells at 0.1 uM incubated for 48 hrs in presence of BTK inhibitor, ibrutinib by Annexin V-FITC/PI staining based flow cytometry (reference value: 6.59 %); assay type: functional
[12] = tested on: OCI-Ly10; experiment: Synergistic antiproliferative activity against human OCILY10 cells harboring MYD88 L265P assessed as inhibition of cell growth at 1600 nM incubated for 72 hrs in presence of BTK inhibitor, ibrutinib at 6.2 nM by CCK-8 assay (reference value: 64.69 %); assay type: functional
[13] = target: Insulin-like growth factor 1 receptor (Homo sapiens) (UniProt P08069); experiment: Inhibition of IGFR1 (unknown origin) at 100 nM incubated for 1 hr in presence of ATP by ELISA analysis
[14] = target: Tyrosine-protein kinase BTK (Homo sapiens) (UniProt Q06187); experiment: Inhibition of BTK (unknown origin) at 100 nM incubated for 1 hr in presence of ATP by ELISA analysis
[15] = tested on: OCI-Ly10; experiment: Synergistic antiproliferative activity against human OCILY10 cells harboring MYD88 L265P assessed as inhibition of cell growth at 400 nM incubated for 72 hrs in presence of BTK inhibitor, ibrutinib at 1.6 nM by CCK-8 assay (reference value: 34.46 %); assay type: functional
[16] = tested on: OCI-Ly10; experiment: Induction of apoptosis in human OCILY10 cells harboring MYD88 L265P assessed as upregulation of caspase-3 cleavage at 0.1 uM in presence of BTK inhibitor, ibrutinib by immunoblotting analysis; assay type: functional, cell-based
[17] = tested on: OCI-Ly10; experiment: Induction of apoptosis in human OCILY10 cells assessed as upregulation of PARP cleavage at 0.1 to 1 uM incubated for 24 hrs by immunoblotting analysis; assay type: functional, cell-based; conditions: dose 0.1-1 µM
[18] = target: Mast/stem cell growth factor receptor Kit (Homo sapiens) (UniProt P10721); experiment: Inhibition of C-kit (unknown origin) at 100 nM incubated for 1 hr in presence of ATP by ELISA analysis
[19] = tested on: OCI-Ly10; experiment: Induction of apoptosis in human OCILY10 cells assessed as early apoptotic cells at 0.5 uM incubated for 24 hrs by Annexin V-FITC/PI staining based flow cytometry (reference value: 10 %); assay type: functional
[20] = tested on: OCI-Ly10; experiment: Synergistic antiproliferative activity against human OCILY10 cells harboring MYD88 L265P assessed as inhibition of cell growth at 800 nM incubated for 72 hrs in presence of BTK inhibitor, ibrutinib at 6.2 nM by CCK-8 assay (reference value: 54.76 %); assay type: functional
[21] = target: Interleukin-1 receptor-associated kinase 4 (Homo sapiens) (UniProt Q9NWZ3); experiment: Inhibition of IRAK4 in human OCILY10 cells assessed as downregulation of IRAK4 phosphorylation level by immunoblotting analysis; assay type: cell-based
[22] = tested on: OCI-Ly10; experiment: Synergistic antiproliferative activity against human OCILY10 cells harboring MYD88 L265P assessed as inhibition of cell growth at 800 nM incubated for 72 hrs in presence of BTK inhibitor, ibrutinib at 1.6 nM by CCK-8 assay (reference value: 54.76 %); assay type: functional
[23] = target: Tyrosine-protein kinase ABL1 (Homo sapiens) (UniProt P00519); experiment: Inhibition of ABL (unknown origin) at 100 nM incubated for 1 hr in presence of ATP by ELISA analysis
[24] = tested on: OCI-Ly10; experiment: Induction of apoptosis in human OCILY10 cells assessed as upregulation of caspase-3 cleavage at 0.1 to 1 uM incubated for 24 hrs by immunoblotting analysis; assay type: functional, cell-based; conditions: dose 0.1-1 µM
[25] = tested on: OCI-Ly10; experiment: Induction of apoptosis in human OCILY10 cells harboring MYD88 L265P assessed as early apoptotic cells at 0.1 uM incubated for 48 hrs in presence of BTK inhibitor, ibrutinib by Annexin V-FITC/PI staining based flow cytometry (reference value: 6.76 %); assay type: functional

Tyrosine-protein kinase ABL1 (Homo sapiens), sequence (P00519 whole entry): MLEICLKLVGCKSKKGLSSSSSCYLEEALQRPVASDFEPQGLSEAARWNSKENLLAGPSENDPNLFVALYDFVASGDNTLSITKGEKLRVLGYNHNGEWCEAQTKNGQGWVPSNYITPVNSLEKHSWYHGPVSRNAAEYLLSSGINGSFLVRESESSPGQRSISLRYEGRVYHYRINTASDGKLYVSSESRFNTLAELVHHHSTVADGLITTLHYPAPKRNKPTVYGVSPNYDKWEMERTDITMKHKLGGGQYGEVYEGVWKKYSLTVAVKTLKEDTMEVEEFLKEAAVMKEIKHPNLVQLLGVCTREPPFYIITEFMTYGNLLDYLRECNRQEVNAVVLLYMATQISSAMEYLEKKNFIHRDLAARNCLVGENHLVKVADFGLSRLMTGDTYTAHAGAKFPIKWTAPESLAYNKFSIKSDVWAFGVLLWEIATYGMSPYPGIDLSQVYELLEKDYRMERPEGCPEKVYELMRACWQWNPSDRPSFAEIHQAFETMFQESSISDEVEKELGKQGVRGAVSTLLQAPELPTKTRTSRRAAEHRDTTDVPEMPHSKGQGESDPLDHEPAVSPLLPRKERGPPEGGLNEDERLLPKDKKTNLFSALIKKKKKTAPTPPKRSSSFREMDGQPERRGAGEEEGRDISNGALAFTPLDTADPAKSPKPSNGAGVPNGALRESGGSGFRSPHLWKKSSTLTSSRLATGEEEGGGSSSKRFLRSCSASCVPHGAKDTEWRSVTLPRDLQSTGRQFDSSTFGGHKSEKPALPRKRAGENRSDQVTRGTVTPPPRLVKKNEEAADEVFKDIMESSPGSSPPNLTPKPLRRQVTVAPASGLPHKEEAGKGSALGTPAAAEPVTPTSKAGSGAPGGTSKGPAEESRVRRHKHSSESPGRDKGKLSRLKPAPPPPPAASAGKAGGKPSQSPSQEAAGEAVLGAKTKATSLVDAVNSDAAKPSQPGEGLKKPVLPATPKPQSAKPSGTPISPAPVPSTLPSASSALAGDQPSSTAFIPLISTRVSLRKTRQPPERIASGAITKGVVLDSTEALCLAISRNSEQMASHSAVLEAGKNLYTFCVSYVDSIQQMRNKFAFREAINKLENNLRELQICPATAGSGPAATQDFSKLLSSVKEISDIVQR
Tyrosine-protein kinase BTK (Homo sapiens), sequence (Q06187 whole entry): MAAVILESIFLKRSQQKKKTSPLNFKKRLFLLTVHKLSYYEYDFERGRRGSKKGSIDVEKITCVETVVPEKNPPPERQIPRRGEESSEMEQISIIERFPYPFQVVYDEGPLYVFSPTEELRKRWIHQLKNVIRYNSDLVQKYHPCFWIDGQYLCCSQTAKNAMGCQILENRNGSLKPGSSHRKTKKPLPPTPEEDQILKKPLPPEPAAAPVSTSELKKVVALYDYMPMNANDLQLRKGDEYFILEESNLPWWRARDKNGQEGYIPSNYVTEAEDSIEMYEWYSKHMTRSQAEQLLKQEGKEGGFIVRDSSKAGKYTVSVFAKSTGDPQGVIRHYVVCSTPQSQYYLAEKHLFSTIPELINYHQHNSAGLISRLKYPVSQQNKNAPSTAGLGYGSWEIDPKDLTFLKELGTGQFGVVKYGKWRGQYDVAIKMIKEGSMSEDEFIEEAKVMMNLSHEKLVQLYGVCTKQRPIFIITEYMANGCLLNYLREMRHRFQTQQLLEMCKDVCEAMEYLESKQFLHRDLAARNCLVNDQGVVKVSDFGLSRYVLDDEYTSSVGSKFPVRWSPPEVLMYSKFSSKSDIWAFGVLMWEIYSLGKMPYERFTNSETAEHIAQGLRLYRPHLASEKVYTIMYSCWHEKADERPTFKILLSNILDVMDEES
Proto-oncogene tyrosine-protein kinase receptor Ret (Homo sapiens), sequence (P07949 whole entry): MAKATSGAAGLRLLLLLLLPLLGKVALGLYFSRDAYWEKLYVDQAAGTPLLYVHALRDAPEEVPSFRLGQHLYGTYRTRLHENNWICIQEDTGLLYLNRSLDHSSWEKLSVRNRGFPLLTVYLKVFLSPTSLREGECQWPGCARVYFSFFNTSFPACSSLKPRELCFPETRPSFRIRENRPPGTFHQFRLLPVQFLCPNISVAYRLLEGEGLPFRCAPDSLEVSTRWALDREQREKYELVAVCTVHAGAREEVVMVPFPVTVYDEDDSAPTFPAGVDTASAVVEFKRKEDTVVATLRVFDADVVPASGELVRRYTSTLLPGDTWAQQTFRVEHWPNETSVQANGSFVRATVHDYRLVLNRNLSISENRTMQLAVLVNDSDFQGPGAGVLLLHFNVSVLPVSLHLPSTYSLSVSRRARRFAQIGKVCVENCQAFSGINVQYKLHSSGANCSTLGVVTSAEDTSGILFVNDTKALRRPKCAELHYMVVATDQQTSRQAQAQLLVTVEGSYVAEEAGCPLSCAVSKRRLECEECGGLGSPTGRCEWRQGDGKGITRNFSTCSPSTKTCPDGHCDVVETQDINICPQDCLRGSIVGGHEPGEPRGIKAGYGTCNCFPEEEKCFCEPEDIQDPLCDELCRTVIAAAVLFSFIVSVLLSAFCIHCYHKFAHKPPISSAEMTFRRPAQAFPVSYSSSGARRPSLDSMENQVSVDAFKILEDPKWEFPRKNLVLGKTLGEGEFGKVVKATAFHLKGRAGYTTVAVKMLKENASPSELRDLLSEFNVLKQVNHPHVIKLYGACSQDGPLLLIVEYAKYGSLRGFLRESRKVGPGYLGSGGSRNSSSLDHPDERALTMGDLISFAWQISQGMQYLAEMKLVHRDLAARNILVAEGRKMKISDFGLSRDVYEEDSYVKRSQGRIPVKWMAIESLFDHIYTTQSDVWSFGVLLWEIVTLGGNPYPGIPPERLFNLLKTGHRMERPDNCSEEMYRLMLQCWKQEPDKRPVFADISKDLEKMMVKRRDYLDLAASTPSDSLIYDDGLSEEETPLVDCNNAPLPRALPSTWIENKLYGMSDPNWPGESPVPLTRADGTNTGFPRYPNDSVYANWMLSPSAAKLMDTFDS
Insulin-like growth factor 1 receptor (Homo sapiens), sequence (P08069 31-736 limits assumed): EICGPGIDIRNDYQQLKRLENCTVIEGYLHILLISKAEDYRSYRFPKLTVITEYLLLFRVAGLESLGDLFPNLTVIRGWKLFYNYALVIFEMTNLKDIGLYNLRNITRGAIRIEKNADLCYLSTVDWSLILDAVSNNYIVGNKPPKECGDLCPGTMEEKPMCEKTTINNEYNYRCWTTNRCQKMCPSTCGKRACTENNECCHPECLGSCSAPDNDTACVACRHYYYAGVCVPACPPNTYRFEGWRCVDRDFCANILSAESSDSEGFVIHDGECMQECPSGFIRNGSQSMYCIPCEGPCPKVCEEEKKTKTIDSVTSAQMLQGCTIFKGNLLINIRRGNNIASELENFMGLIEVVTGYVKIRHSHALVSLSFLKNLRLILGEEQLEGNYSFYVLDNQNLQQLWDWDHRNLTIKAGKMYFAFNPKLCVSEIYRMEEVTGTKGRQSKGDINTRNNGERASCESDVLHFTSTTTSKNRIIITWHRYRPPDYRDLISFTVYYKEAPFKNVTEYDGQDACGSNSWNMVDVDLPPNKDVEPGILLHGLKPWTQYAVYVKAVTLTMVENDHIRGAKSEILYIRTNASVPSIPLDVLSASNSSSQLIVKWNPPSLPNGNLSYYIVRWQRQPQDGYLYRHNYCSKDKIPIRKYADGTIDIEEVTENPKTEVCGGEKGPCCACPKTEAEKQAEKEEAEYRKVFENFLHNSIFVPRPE
Insulin-like growth factor 1 receptor (Homo sapiens), sequence (P08069 741-1367 limits assumed): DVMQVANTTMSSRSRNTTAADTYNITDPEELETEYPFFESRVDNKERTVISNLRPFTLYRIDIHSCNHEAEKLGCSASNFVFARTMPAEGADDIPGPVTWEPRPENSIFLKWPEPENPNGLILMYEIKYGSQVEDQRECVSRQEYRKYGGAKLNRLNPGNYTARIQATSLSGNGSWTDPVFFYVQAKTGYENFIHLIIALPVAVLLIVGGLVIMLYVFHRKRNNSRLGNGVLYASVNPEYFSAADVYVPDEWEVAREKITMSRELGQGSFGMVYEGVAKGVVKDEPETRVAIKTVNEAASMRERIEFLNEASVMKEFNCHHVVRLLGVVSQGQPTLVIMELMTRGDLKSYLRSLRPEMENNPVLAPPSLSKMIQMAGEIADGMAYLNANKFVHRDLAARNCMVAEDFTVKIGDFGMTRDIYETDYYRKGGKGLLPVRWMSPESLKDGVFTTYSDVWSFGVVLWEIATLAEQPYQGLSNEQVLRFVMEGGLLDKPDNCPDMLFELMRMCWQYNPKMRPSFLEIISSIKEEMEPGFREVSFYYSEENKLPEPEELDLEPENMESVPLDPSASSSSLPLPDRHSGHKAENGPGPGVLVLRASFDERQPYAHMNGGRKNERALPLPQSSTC

With `Cn1cc(-c2cc3c(cc2NC(=O)c2coc(-c4ccnc(N)c4)n2)CC(C)(C)O3)cn1` the inhibition at 0.2 µM [1] was 67.5%, the inhibition at 0.8 µM [2] was 88.4% and the IC50 [3] was 8.7 nM. The Activity [4] was 12.9%, the inhibition [5] was “inactive” and the Activity [6] was 13.2%. For the same compound, the Activity [7] was “Active”, the inhibition at 0.4 µM [8] was 75.7% and the inhibition [9] was greater than 50%. For the same compound, the Activity [10] was 36.4%, the Activity [11] was 22% and the inhibition at 1.6 µM [12] was 88.6%. The inhibition [13] was “inactive”, the inhibition [14] was “inactive” and the inhibition at 0.4 µM [15] was 37.4%. For the same compound, the Activity [16] was “Active”, the Activity [17] was “Active” and the inhibition [18] was “inactive”. For the same compound, the Activity [19] was 22.8%, the inhibition at 0.8 µM [20] was 83.3% and the inhibition [21] was “Dose-Dependent Effect”. For the same compound, the inhibition at 0.8 µM [22] was 58.1%, the inhibition [23] was “inactive” and the Activity [24] was “Active”. It also gave an Activity [25] of 14.2%.
